From ChEMBL document CHEMBL1149308, “4-{(2R)-[3-Aminopropionylamido]-3-(2,4-dichlorophenyl)propionyl}-1-{2-[(2-thienyl)ethylaminomethyl]phenyl}piperazine as a potent and selective melanocortin-4 receptor antagonist--design, synthesis, and characterization” (J Med Chem, 2004) come the findings set out here.

SMILES strings stand for the structures. Active and inactive are the calls of the source. The rule behind the calls is not given here.

In data set [1] the target is T1, Melanocortin receptor 4 (Homo sapiens, UniProt P32245).
T1 sequence (P32245 whole entry): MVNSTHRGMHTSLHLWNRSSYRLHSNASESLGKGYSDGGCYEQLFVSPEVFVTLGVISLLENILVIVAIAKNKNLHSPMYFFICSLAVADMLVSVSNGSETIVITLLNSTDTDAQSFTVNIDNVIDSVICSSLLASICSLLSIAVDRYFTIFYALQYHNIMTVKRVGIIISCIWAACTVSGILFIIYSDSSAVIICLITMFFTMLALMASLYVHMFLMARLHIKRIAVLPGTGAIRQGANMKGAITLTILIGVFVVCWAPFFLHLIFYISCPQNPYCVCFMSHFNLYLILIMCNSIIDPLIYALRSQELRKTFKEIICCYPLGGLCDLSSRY
Description: Agonist activity at human MC4 receptor expressed in HEK293 cells assessed as stimulation of cAMP production
Data set [2] deals with T1, Melanocortin receptor 4. Description: biochemical.
Description: (§1) Displacement of [125]NDP-MSH from human MC4 receptor expressed in HEK293 cells
Data set [3] addresses T1, Melanocortin receptor 4. The note with it: HEK293.
Description: as §1
Data set [4] deals with T2, Melanocortin receptor 3 (Homo sapiens, UniProt P41968). Format: cell-based, HEK293.
T2 sequence (P41968 whole entry): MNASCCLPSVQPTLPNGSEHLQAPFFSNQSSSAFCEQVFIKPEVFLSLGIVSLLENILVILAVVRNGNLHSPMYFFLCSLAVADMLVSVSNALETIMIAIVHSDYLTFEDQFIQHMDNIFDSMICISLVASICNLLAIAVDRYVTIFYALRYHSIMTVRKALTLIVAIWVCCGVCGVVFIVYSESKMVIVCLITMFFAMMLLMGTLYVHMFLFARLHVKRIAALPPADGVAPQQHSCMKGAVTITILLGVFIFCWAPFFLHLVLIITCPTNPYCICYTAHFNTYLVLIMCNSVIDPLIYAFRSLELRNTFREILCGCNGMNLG
Data set [5] addresses T3, Melanocyte-stimulating hormone receptor (Homo sapiens, UniProt Q01726). Kind of data set: Inhibition of human MC1 receptor expressed in HEK293 cells at 10 uM. In kind it is cell-based.
Target sequence in this assay (Q01726 whole entry, looked up): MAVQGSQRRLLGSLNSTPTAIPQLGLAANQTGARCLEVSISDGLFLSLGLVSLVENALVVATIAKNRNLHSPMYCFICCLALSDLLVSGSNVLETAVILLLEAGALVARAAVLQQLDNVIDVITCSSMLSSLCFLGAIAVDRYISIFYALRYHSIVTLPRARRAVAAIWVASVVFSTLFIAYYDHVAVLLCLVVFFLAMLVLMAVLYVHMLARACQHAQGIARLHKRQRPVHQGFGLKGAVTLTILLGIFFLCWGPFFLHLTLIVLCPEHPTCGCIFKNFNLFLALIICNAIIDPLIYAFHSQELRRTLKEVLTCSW
For data set [6], the target named is T2, Melanocortin receptor 3. Kind of data set: Inhibition of human MC3 receptor expressed in HEK293 cells at 10 uM. In kind it is cell-based.
The target of data set [7] is T1, Melanocortin receptor 4. Description: Antagonist activity at human MC4 receptor expressed in HEK293 cells assessed as inhibition of alpha-MSH-stimulated cAMP production. Format: functional, cell-based. The note with it: read-out: pA2 (converted).
Data set [8] deals with T3, Melanocyte-stimulating hormone receptor. Format: cell-based, HEK293.
Target sequence in this assay (Q01726 whole entry): as the sequence (Q01726 whole entry, looked up) above
A further data set concerns the target Melanocortin receptor 5 (Homo sapiens, UniProt P33032). Format: cell-based, HEK293.
Data set [9] is described as follows: Distribution coefficient, log D at pH 7.4. The note with it: octanol/water. In kind it is physicochemical.
Data set [10] in a line: Clearance in rat at 10 mg/kg, iv. In kind it is ADME, organism-based. The settings on record: in vivo. Details: dose 10 mg/kg, route intravenous.
The nature of data set [11]: Volume of distribution in rat at 10 mg/kg, iv. Format: ADME, organism-based. Details: dose 10 mg/kg, route intravenous. The settings on record: in vivo, read-out: Vdss.
Data set [12] in a line: Half life in rat at 10 mg/kg, iv. In kind it is ADME, organism-based. Details: dose 10 mg/kg, route intravenous. The note with it: in vivo.
Data set [13] can be described thus: Concentration in rat brain at 2 mg/kg, iv after […]. Format: ADME, organism-based. The note with it: read-out: Drug uptake. Details: dose 2 mg/kg, route intravenous.
Data set [14] in a line: Plasma concentration in rat at 2 mg/kg, iv after […]. Details: dose 2 mg/kg, route intravenous. In kind it is ADME, organism-based.
The nature of data set [15]: Ratio of drug level in brain to plasma of rat at 2 mg/kg, iv after […]. In kind it is ADME, organism-based. Details: dose 2 mg/kg, route intravenous.
Data set [16] in a line: Tmax in rat at 10 mg/kg, po. In kind it is ADME, organism-based. Details: dose 10 mg/kg, route oral. The settings on record: in vivo.
Data set [17] in a line: Cmax in rat at 10 mg/kg, po. In kind it is ADME, organism-based. Details: dose 10 mg/kg, route oral. The note with it: in vivo.
A short description of data set [18]: AUC in rat at 10 mg/kg, po. Format: ADME, organism-based. Details: dose 10 mg/kg, route oral. The settings on record: plasma.
A short description of data set [19]: Intrinsic clearance in human liver microsomes. In kind it is ADME, Microsome. (In general: Liver microsomes are vesicles of endoplasmic reticulum, rich in cytochrome P450 enzymes.)
The nature of data set [20]: Oral bioavailability in rat at 10 mg/kg, po. The settings on record: in vivo. Format: ADME, organism-based.
Data set [21] has as its target T1, Melanocortin receptor 4. This is another data set of the same source.
Description: as §1

Melanocortin receptor 5, sequence (P33032 whole entry): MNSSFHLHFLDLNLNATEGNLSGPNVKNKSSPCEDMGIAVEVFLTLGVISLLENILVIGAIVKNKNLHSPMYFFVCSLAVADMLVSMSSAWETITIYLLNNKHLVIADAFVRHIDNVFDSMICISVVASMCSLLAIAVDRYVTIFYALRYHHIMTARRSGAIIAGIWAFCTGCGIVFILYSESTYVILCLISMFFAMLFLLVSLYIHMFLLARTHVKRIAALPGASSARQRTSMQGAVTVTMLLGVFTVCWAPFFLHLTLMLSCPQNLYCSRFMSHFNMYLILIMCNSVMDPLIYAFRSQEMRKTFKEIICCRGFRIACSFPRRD

On to `NCC(=O)N[C@H](Cc1ccc(Cl)cc1)C(=O)N1CCN(c2ccccc2CNCCc2cccs2)CC1`, for which the EC50 on Melanocortin receptor 4 [1] is 580 nM (agonist).

Take `Cn1nnc(CC2(C3CCCCC3)CCN(C(=O)[C@@H](Cc3ccc(Cl)cc3)NC(=O)[C@H]3Cc4ccccc4CN3)CC2)n1`: the Ki on Melanocortin receptor 4 [2] is 1.2 nM (antagonist).

Take `CS(=O)(=O)N1CC2(CCN(C(=O)[C@@H](Cc3ccccc3)NC(=O)[C@@H](N)Cc3c[nH]cn3)CC2)c2ccccc21`: the result at Melanocortin receptor 4 [3] was inactive.

For `NCCC(=O)N[C@H](Cc1ccc(Cl)cc1)C(=O)N1CCN(c2ccccc2CNCCc2cccs2)CC1`, the Ki on Melanocortin receptor 3 [4] was 1400 nM (antagonist).

As for `NCc1ccccc1N1CCN(C(=O)[C@@H](Cc2ccc(Cl)cc2)NC(=O)[C@H]2Cc3ccccc3CN2)CC1`, the inhibition was found to be 27% in data set [5] and 34% on Melanocortin receptor 3 [6]. For the same compound, at Melanocortin receptor 4 [1], the EC50 is 890 nM (agonist).

On to `NCCC(=O)N[C@H](Cc1ccc(Cl)cc1Cl)C(=O)N1CCN(c2ccccc2CNCCc2cccs2)CC1`, for which the Kb at Melanocortin receptor 4 [7] is 12.6 nM (antagonist). Besides, the inhibition constant (Ki) in data set [8] was 4200 nM (antagonist); on Melanocortin receptor 3 [4], 640 nM (antagonist); at Melanocortin receptor 5, 280 nM (antagonist); at Melanocortin receptor 4 [21] it was 1.8 nM (antagonist). The compound also had a logD in [9] of 1.1. This compound returned a clearance in data set [10] of 24 mL/min/kg. Besides, in data set [11], the Vd was found to be 9.5 L/kg. Moreover, the half-life in data set [12] is 4.6 h. Further, the concentration at […] in [13] was determined as 75 ng/g; in data set [14] it was 71 ng/mL. The Kp at […] in data set [15] amounted to 1. Further, the Tmax in data set [16] was determined as 0.5 h. This compound returned a Cmax in data set [17] of 18 ng/mL. Moreover, the area under the curve (AUC) in [18] amounted to 51 ng·h/mL. Further, in data set [19], the intrinsic metabolic clearance (CLint scaled) was 23 mL/min/kg. Further, the bioavailability in data set [20] amounted to 1%.

A word on the EC50: it is the concentration giving half of the maximal effect. Low readings indicate an effect from little substance, high ones a need for much substance. Usually Ki stands for the dissociation constant of the complex between target and ligand, obtained from inhibition or displacement. Read a high Ki as weaker binding. The inhibition is the change of the read-out against control, counted positive when it falls. Low values mean a response near the control, high ones a response far below the control. By logD is commonly meant the decadic logarithm of the distribution of all forms, ionised or not, between an organic phase and buffer at a given pH. Read a low logD as lower lipophilicity. As a reminder, the clearance is the rate of elimination divided by the concentration. A high value points to a high capacity for elimination. What is called half-life is the time in which the quantity being followed falls by half. A word on the Kp: it is the ratio of the level in a tissue or fluid to that in plasma or blood. The term Tmax denotes the time at which the peak concentration occurs. The Cmax is the highest concentration seen after dosing. Broadly, the AUC is concentration integrated over time. High values mean more exposure, low ones less exposure. A word on the CLint scaled: it is the rate of metabolic loss divided by the concentration. Low readings indicate greater metabolic stability, high ones faster metabolism. A word on the bioavailability: it is dose-corrected exposure relative to a reference, in per cent. Higher therefore signals much systemic uptake.
